# Key:
# [1] = tested on: SMN2 minigene mRNA (SMN2-A minigene) in HEK293H cells; assay: SMN2 minigene mRNA splicing RT-qPCR assay in cultured cells; assay type: cell-based, human; conditions: Homo sapiens, HEK293-H; concentration increasing full length SMN2 mRNA 1.5-fold relative to vehicle-treated cells; HEK293H cells with SMN2-A minigene, 24 hours, 7-point concentration data; read-out: EC1.5x for production of full length SMN2 mRNA
# Summary of the method: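 EC1.5× = concentration raising full-length SMN2 minigene mRNA 1.5-fold over vehicle, from 7-point curves in duplicate. Stably transfected HEK293H cells exposed 24 h at 37 °C; lysates assayed by multiplex RT-qPCR, minigene FL signal normalized to GAPDH via modified ΔΔCt.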
# [2] = tested on: Smn protein in SMA patient fibroblast cells (GM03813); assay: Smn protein assay in cultured cells (SMN HTRF); assay type: cell-based, human; conditions: SMA patient fibroblast cells, 48 hours; for EC1.5x for Smn protein expression: 7-point concentration curve, SMN HTRF, concentration producing 1.5 times Smn protein vs DMSO vehicle control; for maximum fold (Fold) increase of Smn protein: 7-point concentration data, fold relative to vehicle control
# Summary of the method: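 Smn protein quantified by HTRF with anti-SMN d2/kryptate pair, 665/620 nm ratio blank-corrected, in RIPA lysates of GM03813 fibroblasts after 48 h compound exposure (7 concentrations, 3.16-fold steps, triplicates). Values: concentration producing 1.5× vehicle Smn level, and maximal fold increase.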
Compound,EC (1.5-fold increase) [1] [µM],EC1.5x for Smn protein expression [2],maximum fold (Fold) increase of Smn protein [2],melting point [°C]
"COc1ccc(-c2cc(=O)n3cc(C4=CCNCC4)ncc3n2)cc1OC [Cpd 402, 2-(3,4-dimethoxyphenyl)-7-(1,2,3,6-tetrahydropyridin-4-yl)-4H-pyrazino[1,2-a]pyrimidin-4-one]",< 0.1,** (an EC1.5× between >1 μM and ≤3 μM is indicated by two stars (**)),**** (a fold increase between >1.5 and ≤1.65 is indicated by four stars (****)),205 to 208
"CCCNC1CCN(c2cc(C)c3nc(-c4ccc(OC)c(OC)c4)cc(=O)n3c2)CC1 [Cpd 407, 2-(3,4-dimethoxyphenyl)-9-methyl-7-[4-(propylamino)piperidin-1-yl]-4H-pyrido[1,2-a]pyrimidin-4-one]",< 0.1,,*** (a fold increase between >1.35 and ≤1.5 is indicated by three stars (***)),178 to 184
"Cn1ncc2cc(-c3cc(=O)n4cc(C5=CCNCC5)ccc4n3)ccc21 [Cpd 443, 2-(1-methyl-1H-indazol-5-yl)-7-(1,2,3,6-tetrahydropyridin-4-yl)-4H-pyrido[1,2-a]pyrimidin-4-one]",< 0.1,**** (an EC1.5x≤0.3 μM is indicated by four stars (****)),***** (a fold increase >1.65 is indicated by five stars (*****)),200 to 203
"Cc1cc2cc(-c3cc(=O)n4cc(N5CCNCC5)ccc4n3)oc2c(C)n1 [Cpd 486, 2-(5,7-dimethylfuro[2,3-c]pyridin-2-yl)-7-(piperazin-1-yl)-4H-pyrido[1,2-a]pyrimidin-4-one]",< 0.1,**** (an EC1.5x≤0.3 μM is indicated by four stars (****)),**** (a fold increase between >1.5 and ≤1.65 is indicated by four stars (****)),198 to 200
"Cn1ncc2cc(-c3cc(=O)n4cc(C5CCNCC5)ccc4n3)ccc21 [Cpd 603, 2-(1-methyl-1H-indazol-5-yl)-7-(piperidin-4-yl)-4H-pyrido[1,2-a]pyrimidin-4-one]",0.1 to 0.3,*** (an EC1.5× between >0.3 μM and ≤1 μM is indicated by three stars (***)),***** (a fold increase >1.65 is indicated by five stars (*****)),268 to 270
"COc1nc(C)cn2nc(-c3cc(=O)n4cc(N5CCN(C)CC5)ccc4n3)cc12 [Cpd 625, 2-(4-methoxy-6-methylpyrazolo[1,5-a]pyrazin-2-yl)-7-(4-methylpiperazin-1-yl)-4H-pyrido[1,2-a]pyrimidin-4-one]",1 to 3,,** (a fold increase between >1.2 and ≤1.35 is indicated by two stars (**)),242 to 244
"Cc1cn2nc(-c3cc(=O)n4cc(N5CCN(C)CC5)ccc4n3)cc2c(O)n1 [Cpd 626, 2-(4-hydroxy-6-methylpyrazolo[1,5-a]pyrazin-2-yl)-7-(4-methylpiperazin-1-yl)-4H-pyrido[1,2-a]pyrimidin-4-one]",0.3 to 1,** (an EC1.5× between >1 μM and ≤3 μM is indicated by two stars (**)),***** (a fold increase >1.65 is indicated by five stars (*****)),280 to 283
"CCc1nc(C)cn2nc(-c3cc(=O)n4cc(N5CCN(C)[C@H](C)C5)ccc4n3)cc12 [Cpd 629, 7-[(3R)-3,4-dimethylpiperazin-1-yl]-2-(4-ethyl-6-methylpyrazolo[1,5-a]pyrazin-2-yl)-4H-pyrido[1,2-a]pyrimidin-4-one]",< 0.1,**** (an EC1.5x≤0.3 μM is indicated by four stars (****)),***** (a fold increase >1.65 is indicated by five stars (*****)),257 to 259
"Cc1cn2nc(-c3cc(=O)n4cc(C5CCN(CCF)CC5)ccc4n3)cc2c(C)n1 [Cpd 662, 2-(4,6-dimethylpyrazolo[1,5-a]pyrazin-2-yl)-7-[1-(2-fluoroethyl)piperidin-4-yl]-4H-pyrido[1,2-a]pyrimidin-4-one]",< 0.1,**** (an EC1.5x≤0.3 μM is indicated by four stars (****)),***** (a fold increase >1.65 is indicated by five stars (*****)),197 to 199
"Cc1cn2cc(-c3cc(=O)n4cc(N5CCNCC5)ccc4n3)cc(CO)c2n1 [Cpd 674, 2-[8-(hydroxymethyl)-2-methylimidazo[1,2-a]pyridin-6-yl]-7-(piperazin-1-yl)-4H-pyrido[1,2-a]pyrimidin-4-one]",< 0.1,**** (an EC1.5x≤0.3 μM is indicated by four stars (****)),***** (a fold increase >1.65 is indicated by five stars (*****)),> 320
"Cc1cn2nc(-c3cc(=O)n4cc(N5CCNCC5)ccc4n3)cc2c(N(C)C)n1 [Cpd 688, 2-[4-(dimethylamino)-6-methylpyrazolo[1,5-a]pyrazin-2-yl]-7-(piperazin-1-yl)-4H-pyrido[1,2-a]pyrimidin-4-one]",1 to 3,** (an EC1.5× between >1 μM and ≤3 μM is indicated by two stars (**)),*** (a fold increase between >1.35 and ≤1.5 is indicated by three stars (***)),245 to 248
"CCc1nc(C)cn2nc(-c3cc(=O)n4cc(C5CCN(C(CO)CO)CC5)ccc4n3)cc12 [Cpd 694, 7-[1-(1,3-dihydroxypropan-2-yl)piperidin-4-yl]-2-(4-ethyl-6-methylpyrazolo[1,5-a]pyrazin-2-yl)-4H-pyrido[1,2-a]pyrimidin-4-one]",< 0.1,**** (an EC1.5x≤0.3 μM is indicated by four stars (****)),***** (a fold increase >1.65 is indicated by five stars (*****)),228 to 230
"Cc1cn2cc(-c3cc(=O)n4cc(N5CCNCC5)ccc4n3)cc(C3CC3)c2n1 [Cpd 714, 2-(8-cyclopropyl-2-methylimidazo[1,2-a]pyridin-6-yl)-7-(piperazin-1-yl)-4H-pyrido[1,2-a]pyrimidin-4-one]",< 0.1,**** (an EC1.5x≤0.3 μM is indicated by four stars (****)),***** (a fold increase >1.65 is indicated by five stars (*****)),274 to 277
"Cc1cn2nc(-c3cc(=O)n4cc(N5CC[C@@H](CN)C5)ccc4n3)cc2c(C)n1 [Cpd 764, 7-[(3S)-3-(aminomethyl)pyrrolidin-1-yl]-2-(4,6-dimethylpyrazolo[1,5-a]pyrazin-2-yl)-4H-pyrido[1,2-a]pyrimidin-4-one]",1 to 3,* (An EC1.5× for Smn protein expression between >3 μM and ≤10 μM is indicated by one star (*)),*** (a fold increase between >1.35 and ≤1.5 is indicated by three stars (***)),244 to 246
"Cc1cn2nc(-c3cc(=O)n4cc(CCCN(C)C)ccc4n3)cc2c(C)n1 [Cpd 769, 7-[3-(dimethylamino)propyl]-2-(4,6-dimethylpyrazolo[1,5-a]pyrazin-2-yl)-4H-pyrido[1,2-a]pyrimidin-4-one]",0.1 to 0.3,*** (an EC1.5× between >0.3 μM and ≤1 μM is indicated by three stars (***)),***** (a fold increase >1.65 is indicated by five stars (*****)),136 to 138
"Cc1cn2nc(-c3cc(=O)n4cc(C5=C[C@H](C)N[C@@H](C)C5)ccc4n3)cc2c(C)n1 [Cpd 798, 2-(4,6-dimethylpyrazolo[1,5-a]pyrazin-2-yl)-7-[(2S,6S)-2,6-dimethyl-1,2,3,6-tetrahydropyridin-4-yl]-4H-pyrido[1,2-a]pyrimidin-4-one]",< 0.1,**** (an EC1.5x≤0.3 μM is indicated by four stars (****)),***** (a fold increase >1.65 is indicated by five stars (*****)),228 to 231

# Source: patent publication US11753407B2, “Compounds for treating spinal muscular atrophy” (PTC Therapeutics, Inc., priority 2012, dated 2023)
